Laboratory results published in ChEMBL document CHEMBL1201862, “PubChem BioAssay data set” (2004).
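Growth conditions: 96-well plates. Treatment: test compound, 48 hours, 5 concentrations. Analysis: linear interpolation between bracketing concentrations; unreached endpoints set to highest concentration. Here, GI50 denotes the concentration required for 50% inhibition of growth.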 The source made the active and inactive calls. No stated cut-off is given here; in the data, active = GI50 up to about 1.1 µM and inactive = higher.

Assays:
Assay in all cases: NCI tumour cell line growth inhibition, 48 h
[1] = test system: DMS-273
[2] = test system: HCC 2998
[3] = test system: HCT-116
[4] = test system: HCT-15
[5] = test system: M14
[6] = test system: M19-MEL
[7] = test system: MOLT-4
[8] = test system: OVCAR-5
[9] = test system: SF-268
[10] = test system: SK-MEL-28
[11] = test system: SW-620
[12] = test system: UACC-257
[13] = test system: UO-31
[14] = test system: CCRF-CEM
[15] = test system: KM12
[16] = test system: NCI/ADR-RES
[17] = test system: OVCAR-3
[18] = test system: OVCAR-4
[19] = test system: SK-MEL-5
[20] = test system: Hs-578T

Row | Structure (SMILES) | GI50 [1] | GI50 [2] | GI50 [3] | GI50 [4] | GI50 [5] | GI50 [6] | GI50 [7] | GI50 [8] | GI50 [9] | GI50 [10] | GI50 [11] | GI50 [12] | GI50 [13] | GI50 [14] | GI50 [15] | GI50 [16] | GI50 [17] | GI50 [18] | GI50 [19] | GI50 [20]
1 | CC(C)=CCC/C(C)=C/C=C/C(C)=C/C1C[C@@]2(C(O)O1)[C@H](CCCO)/C(=C(/C)C=O)CC[C@]2(C)O (some centres undefined) | 1.39 µM (inactive) | 15 µM (inactive) | 20.2 µM (inactive) | 16.3 µM | 13.5 µM (inactive) | 16.2 µM (inactive) | 4.95 µM (inactive) | 40.8 µM (inactive) | 15.2 µM (inactive) | 15.9 µM (inactive) | 10.4 µM (inactive) | 25.4 µM (inactive) | 17.3 µM (inactive) |  |  |  |  |  |  | 
2 | COc1ccc(-c2nc3ccc([N+](=O)[O-])cc3c(=O)[nH]2)cc1 | 48.4 µM (inactive) | > 100 µM (inactive) | 27.4 µM (inactive) | > 100 µM |  | > 100 µM (inactive) | > 100 µM (inactive) | > 100 µM (inactive) | 20.4 µM (inactive) | > 100 µM (inactive) | > 100 µM (inactive) | > 96.2 µM (inactive) | 61.9 µM (inactive) | > 100 µM (inactive) | > 100 µM (inactive) | 34 µM (inactive) | 28.4 µM (inactive) | 12.9 µM (inactive) | > 100 µM (inactive) | 
3 | C1CSCCSCSCCS1 |  | > 100 µM (inactive) | > 100 µM (inactive) | > 100 µM | > 100 µM (inactive) |  |  | > 100 µM (inactive) | > 100 µM (inactive) | > 100 µM (inactive) | > 100 µM (inactive) | > 100 µM (inactive) | > 100 µM (inactive) |  | > 100 µM (inactive) | > 100 µM (inactive) | > 100 µM (inactive) | > 100 µM (inactive) | > 100 µM (inactive) | > 100 µM (inactive)
4 | C[C@@H]1CC[C@H]2[C@H]1[C@H]1[C@@H](CC[C@]2(C)N=C=S)C1(C)C |  | 16.1 µM (inactive) | 17.9 µM (inactive) | 27.8 µM | 18.5 µM (inactive) |  | 13.8 µM (inactive) | 28.3 µM (inactive) |  | 21.1 µM (inactive) | 15.1 µM (inactive) | 25.8 µM (inactive) | 32.1 µM (inactive) | 13.3 µM (inactive) | 17 µM (inactive) | 21.7 µM (inactive) | 19.3 µM (inactive) | 44.9 µM (inactive) | 17.5 µM (inactive) | 48.1 µM (inactive)
5 | C#Cc1cccc(N2C(=O)c3c(c(-c4ccccc4)c(-c4ccc(Cc5ccc(-c6c(-c7ccccc7)c7c(c(-c8ccccc8)c6-c6ccccc6)C(=O)N(c6cccc(C#C)c6)C7=O)cc5)cc4)c(-c4ccccc4)c3-c3ccccc3)C2=O)c1 | 52.2 µM (inactive) | 44.7 µM (inactive) | 21 µM (inactive) | 7.85 µM | 16.9 µM (inactive) | 23.1 µM (inactive) | 14.3 µM (inactive) | > 100 µM (inactive) | 15 µM (inactive) | > 100 µM (inactive) | 33 µM (inactive) | 47.3 µM (inactive) | 36.7 µM (inactive) | 26.6 µM (inactive) | 25.6 µM (inactive) |  | 44.3 µM (inactive) | > 100 µM (inactive) | 21.9 µM (inactive) | 
6 | c1cncc(O[Si](Oc2cccnc2)(Oc2cccnc2)Oc2cccnc2)c1 | > 100 µM (inactive) | > 100 µM (inactive) |  | > 100 µM | > 100 µM (inactive) | > 100 µM (inactive) | > 100 µM (inactive) | > 100 µM (inactive) |  | > 100 µM (inactive) | > 100 µM (inactive) | > 100 µM (inactive) | > 100 µM (inactive) |  | > 100 µM (inactive) |  | > 100 µM (inactive) | > 100 µM (inactive) | > 100 µM (inactive) | 
7 | N#Cc1ccc(C2Oc3ccc(Cl)cc3C=C2[N+](=O)[O-])cc1 (centres undefined) |  | 0.979 µM (active) | 0.522 µM (active) | 1.07 µM | 1.36 µM (inactive) |  | 0.906 µM (active) | 2.09 µM (inactive) | 1.91 µM (inactive) | 1.82 µM (inactive) | 0.845 µM (active) | 2.4 µM (inactive) | 1.63 µM (inactive) | 0.219 µM (active) | 1.9 µM (inactive) |  | 1.63 µM (inactive) | 1.79 µM (inactive) | 1.38 µM (inactive) | 6.32 µM (inactive)
